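Protocol summary: plate cells (96-well), add compound at 5 concentrations, incubate 48 h, interpolate endpoints linearly. Here, GI50 denotes the concentration required for 50% inhibition of growth.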 Active and inactive are the calls of the source. Rule as the data show it: active = GI50 up to about 1.1 µM and inactive = higher.
Experiments:
Assay in all cases: DTP human tumour cell line panel, 48 h
SK-MEL-5 = test system: SK-MEL-5
OVCAR-4 = test system: OVCAR-4
HCT-15 = test system: HCT-15
SR = test system: SR
NCI-H460 = test system: NCI-H460
UACC-62 = test system: UACC-62
XF498 = test system: XF498
TK-10 = test system: TK-10
RPMI-8226 = test system: RPMI-8226
SK-MEL-28 = test system: SK-MEL-28
MCF7 = test system: MCF7
SNB-19 = test system: SNB-19
HT-29 = test system: HT-29
EKVX = test system: EKVX
NCI/ADR-RES = test system: NCI/ADR-RES
HOP-92 = test system: HOP-92
NCI-H23 = test system: NCI-H23
CAKI-1 = test system: CAKI-1
OVCAR-5 = test system: OVCAR-5
RXF 393 = test system: RXF 393

| SMILES | GI50 (SK-MEL-5) | GI50 (OVCAR-4) | GI50 (HCT-15) [µM] | GI50 (SR) | GI50 (NCI-H460) | GI50 (UACC-62) | GI50 (XF498) | GI50 (TK-10) | GI50 (RPMI-8226) | GI50 (SK-MEL-28) | GI50 (MCF7) | GI50 (SNB-19) | GI50 (HT-29) | GI50 (EKVX) | GI50 (NCI/ADR-RES) | GI50 (HOP-92) | GI50 (NCI-H23) | GI50 (CAKI-1) | GI50 (OVCAR-5) | GI50 (RXF 393) |
| --- | --- | --- | --- | --- | --- | --- | --- | --- | --- | --- | --- | --- | --- | --- | --- | --- | --- | --- | --- | --- |
| COC(=O)c1ccccc1OCc1cc(=O)oc2ccc(C)cc12 | > 100 µM (inactive) | 20 µM (inactive) | > 100 | > 100 µM (inactive) | > 100 µM (inactive) | > 39.2 µM (inactive) | 31.8 µM (inactive) | 58.7 µM (inactive) | > 63.4 µM (inactive) | > 100 µM (inactive) | 21.4 µM (inactive) | 14.7 µM (inactive) | 49.5 µM (inactive) | > 100 µM (inactive) | 64.7 µM (inactive) | 24 µM (inactive) | > 100 µM (inactive) | 52.5 µM (inactive) | > 100 µM (inactive) | – |
| COc1ccc(-c2onc(-c3c(C)cc(C)cc3C)c2C2=NCCCN2)cc1 | 23 µM (inactive) | 49.9 µM (inactive) | 39.1 | 36.6 µM (inactive) | 32.1 µM (inactive) | 55.2 µM (inactive) | 60 µM (inactive) | – | 23.6 µM (inactive) | 36.4 µM (inactive) | – | 35.1 µM (inactive) | 31.2 µM (inactive) | 96.8 µM (inactive) | – | – | > 100 µM (inactive) | 13.6 µM (inactive) | > 100 µM (inactive) | 47.3 µM (inactive) |
| O=C1OC(c2cccc(C(F)(F)F)c2)c2ccc3ccccc3c21 (centres undefined) | 4.74 µM (inactive) | > 10 µM (inactive) | 8.22 | > 10 µM (inactive) | > 10 µM (inactive) | 7.41 µM (inactive) | > 100 µM (inactive) | > 10 µM (inactive) | – | > 10 µM (inactive) | – | > 10 µM (inactive) | > 10 µM (inactive) | > 10 µM (inactive) | – | 91.8 µM (inactive) | 4.95 µM (inactive) | > 10 µM (inactive) | > 10 µM (inactive) | 13.5 µM (inactive) |
| O=[N+]([O-])c1ccc(/C=N/C2CCCCC2)cc1 | > 100 µM (inactive) | > 100 µM (inactive) | > 100 | > 100 µM (inactive) | > 100 µM (inactive) | > 100 µM (inactive) | > 100 µM (inactive) | > 100 µM (inactive) | – | > 100 µM (inactive) | – | > 100 µM (inactive) | > 100 µM (inactive) | > 100 µM (inactive) | – | > 100 µM (inactive) | > 100 µM (inactive) | > 100 µM (inactive) | > 100 µM (inactive) | > 100 µM (inactive) |
| O=S1(=O)OCCOS(=O)(=O)C1(Cl)Cl | 74.8 µM (inactive) | > 100 µM (inactive) | – | 35.6 µM (inactive) | – | 31.3 µM (inactive) | > 100 µM (inactive) | > 100 µM (inactive) | > 100 µM (inactive) | > 100 µM (inactive) | – | 91.4 µM (inactive) | > 100 µM (inactive) | > 100 µM (inactive) | – | 97.5 µM (inactive) | > 100 µM (inactive) | 47 µM (inactive) | – | – |
| COc1ccc(-c2nc(N)nc(-c3cc(C)ccc3O)c2Cl)cc1 | – | 11.3 µM (inactive) | > 100 | > 100 µM (inactive) | 38.3 µM (inactive) | 29 µM (inactive) | 35.6 µM (inactive) | 32.7 µM (inactive) | > 100 µM (inactive) | 47.6 µM (inactive) | – | 32.9 µM (inactive) | > 100 µM (inactive) | 20.3 µM (inactive) | – | 55.1 µM (inactive) | 50.6 µM (inactive) | 91.4 µM (inactive) | > 100 µM (inactive) | 37.2 µM (inactive) |
| CCOc1ccc(NC(=O)CC2SC(Nc3ccc(C)cc3C)=NC2=O)cc1 (centres undefined) | > 100 µM (inactive) | 90.8 µM (inactive) | > 100 | 29.5 µM (inactive) | > 100 µM (inactive) | 54.2 µM (inactive) | 50.4 µM (inactive) | > 100 µM (inactive) | 29.9 µM (inactive) | > 100 µM (inactive) | – | 54.3 µM (inactive) | > 100 µM (inactive) | > 100 µM (inactive) | – | > 100 µM (inactive) | > 100 µM (inactive) | > 100 µM (inactive) | > 100 µM (inactive) | > 100 µM (inactive) |
| COc1ccc(CCNCCCC2c3ccccc3-c3ccccc32)cc1OC | 10.6 µM (inactive) | 15.8 µM (inactive) | 14.8 | 8.22 µM (inactive) | 7.16 µM (inactive) | 16.4 µM (inactive) | 14.7 µM (inactive) | 14.4 µM (inactive) | 6.3 µM (inactive) | 9.44 µM (inactive) | 6.7 µM (inactive) | 16.7 µM (inactive) | 5.06 µM (inactive) | 16.3 µM (inactive) | 17.2 µM (inactive) | 5.71 µM (inactive) | 15 µM (inactive) | 18.4 µM (inactive) | 19.2 µM (inactive) | 11.3 µM (inactive) |
| COc1ccc(NC(=O)CCc2cc(C(C)(C)C)[nH]n2)cc1 | > 100 µM (inactive) | – | > 100 | > 100 µM (inactive) | > 100 µM (inactive) | > 100 µM (inactive) | > 100 µM (inactive) | > 100 µM (inactive) | > 100 µM (inactive) | > 100 µM (inactive) | – | > 100 µM (inactive) | > 100 µM (inactive) | > 100 µM (inactive) | – | > 100 µM (inactive) | > 100 µM (inactive) | > 100 µM (inactive) | > 100 µM (inactive) | > 100 µM (inactive) |
| CCOC(=O)CC1(C(=O)OCC)c2[nH]c3ccccc3c2CCN1Cc1ccccc1 (centres undefined) | 20 µM (inactive) | 19.2 µM (inactive) | 29.2 | 22 µM (inactive) | 19 µM (inactive) | 17.1 µM (inactive) | 24.2 µM (inactive) | 31.2 µM (inactive) | – | 20.4 µM (inactive) | – | 38.4 µM (inactive) | 14.4 µM (inactive) | 21.8 µM (inactive) | – | 17.5 µM (inactive) | 15.9 µM (inactive) | 31 µM (inactive) | 20.5 µM (inactive) | 17.7 µM (inactive) |
| Cn1ccc2c(C(=O)c3ccccc3)cccc2c1=O | 28.8 µM (inactive) | 95.5 µM (inactive) | 25.8 | 56.1 µM (inactive) | 39.8 µM (inactive) | 31.6 µM (inactive) | 47.1 µM (inactive) | > 100 µM (inactive) | 33.2 µM (inactive) | 60.5 µM (inactive) | – | – | 44.2 µM (inactive) | > 100 µM (inactive) | – | 49.2 µM (inactive) | – | 68.2 µM (inactive) | – | 47.5 µM (inactive) |
| CN(C)[C@@H]1C(O)=C(C(=O)NCNCCCC(=O)O)C(=O)[C@@]2(O)C(O)=C3C(=O)c4c(O)cccc4[C@@](C)(O)[C@H]3C[C@@H]12 | > 100 µM (inactive) | > 100 µM (inactive) | > 100 | > 100 µM (inactive) | > 100 µM (inactive) | > 100 µM (inactive) | > 100 µM (inactive) | > 100 µM (inactive) | > 100 µM (inactive) | > 100 µM (inactive) | – | > 100 µM (inactive) | > 100 µM (inactive) | > 100 µM (inactive) | – | > 100 µM (inactive) | > 100 µM (inactive) | > 100 µM (inactive) | > 100 µM (inactive) | > 100 µM (inactive) |
| CNc1cccc(-c2cc(O)c3cc4c(cc3n2)OCO4)c1 | 0.0847 µM (active) | > 20.7 µM (inactive) | 0.272 | 0.0407 µM (active) | 0.436 µM (active) | 0.153 µM (active) | 3.82 µM (inactive) | 1.42 µM (inactive) | 0.358 µM (active) | 0.859 µM (active) | 0.293 µM (active) | 0.432 µM (active) | 0.3 µM (active) | – | 0.199 µM (active) | 0.533 µM (active) | 0.436 µM (active) | 0.237 µM (active) | 1.79 µM (inactive) | 0.213 µM (active) |

Reference: ChEMBL document CHEMBL1201862, “PubChem BioAssay data set” (2004)
